Read-outs that look alike come from different tables or passages of the source.
Experiments:
[1] = Stability of non-dihydrate azithromycin in constituted suspension: conversion to dihydrate (form A) quantified by SS-NMR; assay type: physicochemical; conditions: for rate of conversion to azithromycin dihydrate in POS formulation II suspension as compared to bulk drug suspended in deionized water: 5° C. or 30° C., 1 to 10 days
Procedure: These POS formulations were created by individually weighing each formulation component into a 60-cc High Density Polyethylene (HDPE) bottle with closure. The resulting formulations were then dry-mixed with a Turbula blender (Glen Mills Inc. Maywood, N.J.) for 5 minutes. The powder blends were then constituted with 18 mls of water, shaken for 30 seconds and stored without agitation under controlled temperature conditions.
Upon conclusion of the storage time period the suspensions were filtered and suspended solids collected as described previously.

[2] = Effect of sucrose vehicle viscosity on conversion in flavoring-free form G suspensions (SS-NMR); assay type: physicochemical; conditions: 820 mg form G, no flavoring, room temperature
Procedure: (§1) Upon conclusion of the storage time period the POS samples were filtered using a Buchner funnel in combination with a standard vacuum filtration apparatus. A Millipore prefilter (AP25, 47 mm) was fitted onto the funnel for the collection of suspended solids. Before filtering, the constituted POS sample was poured into a 200 ml volumetric flask and diluted to 200 ml with water. This lowered the viscosity of the sample, facilitating a quick filtration step. With the vacuum on, the diluted POS samples were poured onto the Millipore prefilter. The isolated filtrate remaining on top of the prefilter was then allowed to stand for 2-minutes in order to dry. Vacuum was applied to the filtration apparatus during this drying step. Suspensions containing only bulk drug were transferred directly onto the filter paper upon completion of storage, without the described dilution step during sample preparation. After drying, the collected filtrate was placed into 4 cc Sunbroker vials and analyzed via Solid-State Nuclear Magnetic Resonance (SS-NMR) for quantification of conversion to azithromycin dihydrate (form A).
(§2) Approximately 300 mg of sample were tightly packed into a 7 mm ZrO spinner for each sample analyzed. One-dimensional ^13C spectra were collected at ambient pressure using ^1H-^13C cross-polarization magic angle spinning (CPMAS) at 295 K on a Bruker 7 mm BL CPMAS probe positioned into a wide-bore Bruker Avance DSX 500 MHz NMR spectrometer (Bruker BioSpin Corporation; Billerica, Mass.). The samples were spun at 7000 Hz corresponding to the maximum specified spinning speed for the 7 mm spinners. The fast spinning speed minimized the intensities of the spinning side bands. To optimize the signal sensitivity, the cross-polarization contact time was adjusted to 2.3 ms and the decoupling power was set to 65 kHz. Typically, a total of 600 scans were acquired, resulting in approximately a 30 minute acquisition time. The spectra were referenced using an external sample of adamantane with its most upfield resonance set to 29.5 ppm.
(§3) Eight pairs of resolved peaks were identified to calibrate ratios of form A in the presence of form G, N, M or F. Integral intensities of all peaks were used as input for the calibration procedure using five different binary mixtures ranging from 3 to 81% of form A with each non-dihydrate form. From this, one non-linear calibration graph was generated for each pair of peaks and each form. For the experimental samples, only the peaks that were totally void from excipient overlap were preferentially integrated. The unknown percentages of form A were then determined from the appropriate calibration graphs. The final result for each sample analyzed was calculated as a weighted average of the determinations from each resolved peak pair.
(§4) Viscosifying agents were incorporated into POS formulations in the absence of conversion enhancers, such as flavoring components. Specifically, a series of viscous media was prepared by dissolving various amounts of either sucrose or sorbitol in a 0.22 M phosphate buffer solution. Each solution was then adjusted with sodium hydroxide to bring the mixture to a pH of 7.8. The viscosity of each constitution media was measured using a Brookfield digital viscometer (model DV-II) equipped with a 13R sample chamber and #18 spindle. A heating jacket was also used to maintain the 8 ml sample volume to a temperature of 21° C. during measurements. 18 mls of each viscous media were then used to constitute 820 mg of form G azithromycin. The resulting suspensions were stored at room temperature for both 5 and 10-days. Upon conclusion of the storage time period the constituted samples were filtered and analyzed by SS-NMR for quantitation of dihydrate species present.

[3] = Effect of sorbitol vehicle viscosity on conversion in flavoring-free form G suspensions (SS-NMR); assay type: physicochemical; conditions: 820 mg form G, no flavoring, room temperature
Procedure: as §1, §2, §3, §4

[4] = Addition of polymeric and surfactant components to slow form M conversion in formulation II (SS-NMR); assay type: physicochemical; conditions: additive level 1 % w/v, 18 ml water, 24 hours room temperature
Procedure: as §1, with “Vacuum was applied to the filtration apparatus during this drying step. Suspensions containing only bulk drug were transferred directly onto the filter paper upon completion of storage, without the described dilution step during sample preparation.” left out
(§5) Approximately 300 mg of sample were tightly packed into a 7 mm ZrO spinner for each sample analyzed. […]
(§6) Eight pairs of resolved peaks were identified to calibrate ratios of form A in the presence of form G, N, M or F. Integral intensities of all peaks were used as input for the calibration procedure using five different binary mixtures ranging from 3 to 81% of form A with each non-dihydrate form. […] The unknown percentages of form A were then determined from the appropriate calibration graphs. […]

[5] = Addition of polymeric and surfactant components to slow form F conversion in formulation II (SS-NMR); assay type: physicochemical; conditions: additive level 1 % w/v, 18 ml water, 24 hours room temperature
Procedure: as §1, with “Vacuum was applied to the filtration apparatus during this drying step. Suspensions containing only bulk drug were transferred directly onto the filter paper upon completion of storage, without the described dilution step during sample preparation.” left out
as §5, §6

[6] = Literature value (Johnson, Kreuter and Zografi, Colloids and Surfaces 17 (1986) 325-342); cited from earlier work
[7] = Surface tension of aqueous additive solution (Wilhelmy plate or literature); assay type: physicochemical; conditions: aqueous solution at the concentration used in the suspension (1 % w/v), Kruss Tensiometer, Wilhemy plate, room temperature
[8] = Effect of individual flavorings and sucrose on conversion of form G to form A in pH 8.16 buffer (SS-NMR); assay type: physicochemical; conditions: 820 mg form G + 200 mg flavoring or sucrose, 18 ml pH 8.16 buffer, room temperature
[9] = Bulk drug in 18 ml water, 5° C., day 1
[10] = Bulk drug in 18 ml water, 5° C., day 10
[11] = Bulk drug in 18 ml water, 30° C., day 1
[12] = Bulk drug in 18 ml water, 30° C., day 10
[13] = Formulation II constituted with 18 ml water, 5° C., day 1
[14] = Formulation II constituted with 18 ml water, 5° C., day 10
[15] = Formulation II constituted with 18 ml water, 30° C., day 1
[16] = Formulation II constituted with 18 ml water, 30° C., day 10
[17] = Bulk drug in 18 ml water, 5° C., day 5
[18] = Bulk drug in 18 ml water, 30° C., day 5
[19] = Formulation II constituted with 18 ml water, 5° C., day 5
[20] = Formulation II constituted with 18 ml water, 30° C., day 5
[21] = 18 ml 0.0 mg/ml sucrose solution pH 7.8, viscosity 1.2 cP
[22] = 18 ml 0.8 mg/ml sucrose solution pH 7.8, viscosity 10.2 cP
[23] = 18 ml 1.1 mg/ml sucrose solution pH 7.8, viscosity 20.2 cP
[24] = 18 ml 1.4 mg/ml sucrose solution pH 7.8, viscosity 41.7 cP
[25] = 18 ml 1.8 mg/ml sucrose solution pH 7.8, viscosity 105.0 cP
[26] = 18 ml 0.0 mg/ml sorbitol solution pH 7.8, viscosity ˜1 cP
[27] = 18 ml 1.02 mg/ml sorbitol solution pH 7.8, viscosity 3.4 cP
[28] = 18 ml 1.54 mg/ml sorbitol solution pH 7.8, viscosity 21.0 cP
[29] = 18 ml 2.04 mg/ml sorbitol solution pH 7.8, viscosity 130.9 cP

With `CCC1OC(=O)C(C)C(O[C@H]2C[C@@](C)(OC)[C@@H](O)C(C)O2)C(C)[C@@H](OC2OC(C)CC(N(C)C)[C@H]2O)[C@@](C)(O)C[C@@H](C)CN(C)[C@H](C)[C@@H](O)[C@]1(C)O` (some centres unmarked) [Form F, azithromycin monohydrate hemi-ethanol solvate] the “rate of conversion to azithromycin dihydrate in POS formulation II suspension as compared to bulk drug suspended in deionized water” value [1] was “much greater rates”, the “% A” value [1, 9] was 0% and the “% A” value [1, 10] was 0%. For the same compound, the “% A” value [1, 11] was 0%, the “% A” value [1, 12] was 0% and the “% A” value [1, 13] was 6%. For the same compound, the “% A” value [1, 14] was 27%, the “% A” value [1, 15] was 19% and the “% A” value [1, 16] was 31%.

For `CC[C@H]1OC(=O)[C@H](C)[C@@H](O[C@H]2C[C@@](C)(OC)[C@@H](O)[C@H](C)O2)[C@H](C)[C@@H](O[C@@H]2O[C@H](C)C[C@H](N(C)C)[C@H]2O)[C@](C)(O)C[C@@H](C)CN(C)[C@H](C)[C@@H](O)[C@]1(C)O` [Form G, azithromycin sesquihydrate], the “rate of conversion to azithromycin dihydrate in POS formulation II suspension as compared to bulk drug suspended in deionized water” value [1] was “much greater rates”, the “% A” value [1, 9] was 1% and the “% A” value [1, 17] was 6%. For the same compound, the “% A” value [1, 10] was 12%, the “% A” value [1, 11] was 3% and the “% A” value [1, 18] was 26%. The “% A” value [1, 12] was 73%, the “% A” value [1, 13] was 72% and the “% A” value [1, 19] was 75%. For the same compound, the “% A” value [1, 14] was 78%, the “% A” value [1, 15] was 82% and the “% A” value [1, 20] was 74%. For the same compound, the “% A” value [1, 16] was 76%, the “5-day Storage (% Form A)” value [2, 21] was 20% and the “10-day Storage (% Form A)” value [2, 21] was 55%. For the same compound, the “5-day Storage (% Form A)” value [2, 22] was 5%, the “10-day Storage (% Form A)” value [2, 22] was 12% and the “5-day Storage (% Form A)” value [2, 23] was 5%. For the same compound, the “10-day Storage (% Form A)” value [2, 23] was 6%, the “5-day Storage (% Form A)” value [2, 24] was 1% and the “10-day Storage (% Form A)” value [2, 24] was 3%. The “5-day Storage (% Form A)” value [2, 25] was 0%, the “10-day Storage (% Form A)” value [2, 25] was 0% and the “5-day Storage (% Form A)” value [3, 26] was 35%. The “10-day Storage (% Form A)” value [3, 26] was 100%, the “5-day Storage (% Form A)” value [3, 27] was 7% and the “10-day Storage (% Form A)” value [3, 27] was 7%. For the same compound, the “5-day Storage (% Form A)” value [3, 28] was 0%, the “10-day Storage (% Form A)” value [3, 28] was 0% and the “5-day Storage (% Form A)” value [3, 29] was 0%. For the same compound, the “10-day Storage (% Form A)” value [3, 29] was 0%.

For `CCC1OC(=O)C(C)C(O[C@H]2C[C@@](C)(OC)[C@@H](O)C(C)O2)C(C)[C@@H](OC2OC(C)CC(N(C)C)[C@H]2O)[C@@](C)(O)C[C@@H](C)CN(C)[C@H](C)[C@@H](O)[C@]1(C)O` (some centres unmarked) [Form J, azithromycin monohydrate hemi-n-propanol solvate], the “rate of conversion to azithromycin dihydrate in POS formulation II suspension as compared to bulk drug suspended in deionized water” value [1] was “did not exhibit a greater conversion rate”, the “% A” value [1, 13] was 0% and the “% A” value [1, 14] was 0%. For the same compound, the “% A” value [1, 15] was 0% and the “% A” value [1, 16] was 0%.

With `CCC1OC(=O)C(C)C(O[C@H]2C[C@@](C)(OC)[C@@H](O)C(C)O2)C(C)[C@@H](OC2OC(C)CC(N(C)C)[C@H]2O)[C@@](C)(O)C[C@@H](C)CN(C)[C@H](C)[C@@H](O)[C@]1(C)O` (some centres unmarked) [Form M, azithromycin monohydrate hemi-isopropanol solvate] the “rate of conversion to azithromycin dihydrate in POS formulation II suspension as compared to bulk drug suspended in deionized water” value [1] was “much greater rates”, the “% A” value [1, 9] was 0% and the “% A” value [1, 17] was 0%. For the same compound, the “% A” value [1, 10] was 0%, the “% A” value [1, 11] was 0% and the “% A” value [1, 18] was 0%. For the same compound, the “% A” value [1, 12] was 0%, the “% A” value [1, 13] was 23% and the “% A” value [1, 19] was 38%. For the same compound, the “% A” value [1, 14] was 40%, the “% A” value [1, 15] was 28% and the “% A” value [1, 20] was 36%. The “% A” value [1, 16] was 62%.

For `CCCCCCCCOC(=O)CC(C(=O)OCCCCCCCC)S(=O)(=O)O.[Na]` (centres unmarked) [Sodium Dioctyl Sulfosuccinate], the “% Conversion to Form A Relative to the Control Sample” value [4] is given as 0%, the “% Conversion to Form A Relative to the Control Sample” value [5] is given as 0% and the “Surface Tension” value [6] is given as 25.6^1 dyne/cm.

With `CCCCCCCCCCCCOS(=O)(=O)[O-].[Na+]` [Sodium Lauryl Sulfate] the “% Conversion to Form A Relative to the Control Sample” value [4] was 0%, the “Surface Tension” value [7] was 35.8^2 dyne/cm and the “% Conversion to Form A Relative to the Control Sample” value [5] was 0%.

In the case of `OC[C@H]1O[C@@](CO)(O[C@H]2O[C@H](CO)[C@@H](O)[C@H](O)[C@H]2O)[C@@H](O)[C@@H]1O` [Sucrose], the “Δ % Form A” value ([8]; constituted 1 day) was 2%, the “Δ % Form A” value ([8]; constituted 5 days) was 1% and the “Δ % Form A” value ([8]; constituted 10 days) was 6%. For the same compound, the “Δ % Form A” value ([8]; constituted 10 days, listed as sucrose) was “only minimal conversion to form A”.

Reference: patent publication US20050013835A1, “Stable non-dihydrate azithromycin oral suspensions” (Pfizer Inc., priority 2003, published 2005)
